Assay results taken from patent US12098148B2, “Therapeutic compounds” (C4X Discovery Limited, priority 2018, dated 2024).
Read-outs that look alike come from different tables or passages of the source.

Experiments:
[1] = test system: NQO1 mRNA in BEAS-2B cells; assay: Beas2B NQO1 mRNA cell based assay; parameters: species or system human; conditions: 24 h compound treatment, increase in NQO1 mRNA vs vehicle (0.1% DMSO), read-out: EC50
Method in brief: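 Relative NQO1 transcript level derived by ΔΔCT with human β-actin as internal control, using direct-lysate one-step RT-qPCR. Cells were BEAS-2B, plated overnight then treated with compound for 24 h.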

[2] = molecular target: human KEAP1 (N-term, residues 321-609) (Homo sapiens, UniProt Q14145); assay: biochemical;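 note: fluorescence polarization competition assay of Kelch domain binding to NRF2, 12-point 1:3 dilution series from 10 µM, read after 1 h at room temperature, floor 10 nM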
human KEAP1 (N-term, residues 321-609), sequence (Q14145 321-609): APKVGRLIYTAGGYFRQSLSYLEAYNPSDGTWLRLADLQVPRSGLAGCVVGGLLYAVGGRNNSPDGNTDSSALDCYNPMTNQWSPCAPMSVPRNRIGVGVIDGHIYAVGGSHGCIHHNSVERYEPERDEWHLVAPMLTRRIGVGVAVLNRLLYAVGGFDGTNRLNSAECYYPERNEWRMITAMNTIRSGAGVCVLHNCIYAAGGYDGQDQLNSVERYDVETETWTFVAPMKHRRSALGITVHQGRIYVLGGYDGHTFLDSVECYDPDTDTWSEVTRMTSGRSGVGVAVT

| SMILES | IC50 [2] [nM] | EC50 ([1]; Homo sapiens, BEAS-2B, 24 h) [nM] | EC50 [1] [nM] |
| --- | --- | --- | --- |
| Cn1nnc(COc2ccc(Cl)c3c2[C@@H](CN2CC(C(F)(F)F)CC2=O)N(C(=O)[C@@H]2CCCC[C@]2(C)C(=O)O)CC3)c1C(F)F (single isomer, unassigned) [Example 212] | 5.7 | 1.9 | – |
| Cn1nnc(COc2ccc(Cl)c3c2[C@@H](CN2CCCC2=O)N(C(=O)[C@@H]2CCCC[C@]2(C)C(=O)O)CC3)c1C(F)F [Example 91, (1S,2R)-2-((S)-5-Chloro-8-((5-(difluoromethyl)-1-methyl-1H-1,2,3-triazol-4-yl)methoxy)-1-((2-oxopyrrolidin-1-yl)methyl)-1,2,3,4-tetrahydroisoquinoline-2-carbonyl)-1-methylcyclohexane-1-carboxylic acid] | 6.1 | 0.21 | – |
| Cc1cc(C(=O)N2CC[C@H](Oc3cccc4c3[C@@H](CN3C(=O)c5ccccc5C3=O)N(C(=O)[C@@H]3CCCC[C@@H]3C(=O)O)CC4)C2)no1 [Example 4, (1S,2R)-2-((S)-1-((1,3-Dioxoisoindolin-2-yl)methyl)-8-(((S)-1-(5-methylisoxazole-3-carbonyl)pyrrolidin-3-yl)oxy)-1,2,3,4-tetrahydroisoquinoline-2-carbonyl)cyclohexane-1-carboxylic acid] | 9 | 13 | – |
| Cn1nnc(COc2ccc(Br)c3c2[C@@H](CN2Cc4ccccc4C2=O)N(C(=O)[C@@H]2CCCC[C@@H]2C(=O)O)CC3)c1C(F)F [Example 41, (1S,2R)-2-((S)-5-bromo-8-((5-(difluoromethyl)-1-methyl-1H-1,2,3-triazol-4-yl)methoxy)-1-((1-oxoisoindolin-2-yl)methyl)-1,2,3,4-tetrahydroisoquinoline-2-carbonyl)cyclohexane-1-carboxylic acid] | 5.2 | 1.5 | – |
| CC(C)n1cc(COc2ccc(Br)c3c2[C@@H](CN2Cc4ccccc4C2=O)N(C(=O)[C@@H]2CCCC[C@@H]2C(=O)O)CC3)nn1 [Example 35, (1S,2R)-2-((S)-5-Bromo-8-((1-isopropyl-1H-1,2,3-triazol-4-yl)methoxy)-1-((1-oxoisoindolin-2-yl)methyl)-1,2,3,4-tetrahydroisoquinoline-2-carbonyl)cyclohexane-1-carboxylic acid] | 9.9 | 7.5 | – |
| Cn1nnc(COc2ccc(Cl)c3c2[C@@H](CN2CCCC2=O)N(C(=O)[C@@H]2CCC[C@@H]2C(=O)O)CC3)c1C(F)F [Example 86, (1S,2R)-2-((S)-5-Chloro-8-((5-(difluoromethyl)-1-methyl-1H-1,2,3-triazol-4-yl)methoxy)-1-((2-oxopyrrolidin-1-yl)methyl)-1,2,3,4-tetrahydroisoquinoline-2-carbonyl)cyclopentane-1-carboxylic acid] | 5 | 8.3 | – |
| CC(Oc1ccc(Br)c2c1[C@@H](CN1Cc3ccccc3C1=O)N(C(=O)[C@@H]1CCCC[C@@H]1C(=O)O)CC2)c1cn(C(C)C)nn1 (single isomer, unassigned) [Example 47] | 68 | – | 76 |
| C[C@@H]1CC(=O)N(C[C@@H]2c3c(OCc4nnn(C)c4C4CC4)ccc(Cl)c3CCN2C(=O)[C@@H]2CCCC[C@]2(C)C(=O)O)C1 [Example 163, (1S,2R)-2-((S)-5-chloro-8-((5-cyclopropyl-1-methyl-1H-1,2,3-triazol-4-yl)methoxy)-1-(((R)-4-methyl-2-oxopyrrolidin-1-yl)methyl)-1,2,3,4-tetrahydroisoquinoline-2-carbonyl)-1-methylcyclohexane-1-carboxylic acid] | 5.3 | 0.78 | – |

Continued by falling IC50 [2], values first:

| IC50 [2] [nM] | SMILES | EC50 ([1]; Homo sapiens, BEAS-2B, 24 h) [nM] | EC50 [1] [nM] |
| --- | --- | --- | --- |
| 62 | Cn1nnc(COc2ccc(Cl)c3c2[C@@H](CN2CCCC2=O)N(C(=O)[C@H]2CCCC[C@]2(C)C(=O)O)CC3)c1C(F)(F)F [Example 169, (1S,2S)-2-((S)-5-chloro-8-((1-methyl-5-(trifluoromethyl)-1H-1,2,3-triazol-4-yl)methoxy)-1-((2-oxopyrrolidin-1-yl)methyl)-1,2,3,4-tetrahydroisoquinoline-2-carbonyl)-1-methylcyclohexane-1-carboxylic acid] | 140 | – |
| 37 | CC(Oc1ccc(Br)c2c1[C@@H](CN1Cc3ccccc3C1=O)N(C(=O)[C@@H]1CCCC[C@@H]1C(=O)O)CC2)c1cn(C(C)C)nn1 (single isomer, unassigned) [Example 46] | 60 | – |
| 15 | Cn1cnc(COc2ccc(Br)c3c2[C@@H](CN2Cc4ccccc4C2=O)N(C(=O)[C@@H]2CCCC[C@@H]2C(=O)O)CC3)c1 [Example 25, (1S,2R)-2-((S)-5-Bromo-8-((1-methyl-1H-imidazol-4-yl)methoxy)-1-((1-oxoisoindolin-2-yl)methyl)-1,2,3,4-tetrahydroisoquinoline-2-carbonyl)cyclohexane-1-carboxylic acid 2,2,2-trifluoroacetic acid] | 150 | – |
| 12 | C[C@@H]1CCN(C[C@@H]2c3c(OCc4nnn(C)c4C(F)(F)F)ccc(Cl)c3CCN2C(=O)[C@@H]2CCCC[C@]2(C)C(=O)O)C1=O [Example 131, (1S,2R)-2-((S)-5-chloro-1-(((R)-3-methyl-2-oxopyrrolidin-1-yl)methyl)-8-((1-methyl-5-(trifluoromethyl)-1H-1,2,3-triazol-4-yl)methoxy)-1,2,3,4-tetrahydroisoquinoline-2-carbonyl)-1-methylcyclohexane-1-carboxylic acid] | 200 | – |
| 10 | Cn1cnnc1COc1ccc(Br)c2c1[C@@H](CN1Cc3ccccc3C1=O)N(C(=O)[C@@H]1CCCC[C@@H]1C(=O)O)CC2 [Example 23, (1S,2R)-2-((S)-5-bromo-8-((4-methyl-4H-1,2,4-triazol-3-yl)methoxy)-1-((1-oxoisoindolin-2-yl)methyl)-1,2,3,4-tetrahydroisoquinoline-2-carbonyl)cyclohexane-1-carboxylic acid] | 33 | – |
| 8.4 | C[C@]1(C(=O)O)CCCC[C@H]1C(=O)N1CCc2c(Cl)ccc(OCc3noc4c(F)c(F)ccc34)c2[C@H]1CN1CCCC1=O [Example 165, (1S,2R)-2-((S)-5-chloro-8-((6,7-difluorobenzo[d]isoxazol-3-yl)methoxy)-1-((2-oxopyrrolidin-1-yl)methyl)-1,2,3,4-tetrahydroisoquinoline-2-carbonyl)-1-methylcyclohexane-1-carboxylic acid] | 11 | – |
| 8 | Cc1noc2nc(COc3ccc(Cl)c4c3[C@@H](CN3CCCC3=O)N(C(=O)[C@@H]3CCCC[C@@H]3C(=O)O)CC4)ccc12 [Example 95, (1S,2R)-2-((S)-5-Chloro-8-((3-methylisoxazolo[5,4-b]pyridin-6-yl)methoxy)-1-((2-oxopyrrolidin-1-yl)methyl)-1,2,3,4-tetrahydroisoquinoline-2-carbonyl) cyclohexane-1-carboxylic acid] | 3.7 | – |
| 7.8 | O=C(O)[C@H]1CCCC[C@H]1C(=O)N1CCc2c(Cl)ccc(OCc3cccnc3)c2[C@H]1CN1CCCC1=O [Example 78, (1S,2R)-2-((S)-5-Chloro-1-((2-oxopyrrolidin-1-yl)methyl)-8-(pyridin-3-ylmethoxy)-1,2,3,4-tetrahydroisoquinoline-2-carbonyl) cyclohexane-1-carboxylic acid] | 57 | – |
| 7 | COCc1c(COc2ccc(Cl)c3c2[C@@H](CN2CCCC2=O)N(C(=O)[C@@H]2CCCC[C@]2(C)C(=O)O)CC3)nnn1C [Example 127, (1S,2R)-2-((S)-5-chloro-8-((5-(methoxymethyl)-1-methyl-1H-1,2,3-triazol-4-yl)methoxy)-1-((2-oxopyrrolidin-1-yl)methyl)-1,2,3,4-tetrahydroisoquinoline-2-carbonyl)-1-methylcyclohexane-1-carboxylic acid] | 2.6 | – |
| 6.2 | Cc1ncc(C(=O)N2CC[C@H](Oc3cccc4c3[C@@H](CN3C(=O)c5ccccc5C3=O)N(C(=O)[C@@H]3CCCC[C@@H]3C(=O)O)CC4)C2)s1 [Example 7, (1S,2R)-2-((S)-1-((1,3-dioxoisoindolin-2-yl)methyl)-8-(((S)-1-(2-methylthiazole-5-carbonyl)pyrrolidin-3-yl)oxy)-1,2,3,4-tetrahydroisoquinoline-2-carbonyl)cyclohexane-1-carboxylic acid] | 48 | – |
| 5.6 | COc1ccc(OCc2cn(C(C)C)nn2)c2c1CCN(C(=O)[C@@H]1CCCC[C@@H]1C(=O)O)[C@@H]2CN1Cc2ccccc2C1=O [Example 61, (1S,2R)-2-((S)-8-((1-isopropyl-1H-1,2,3-triazol-4-yl)methoxy)-5-methoxy-1-((1-oxoisoindolin-2-yl)methyl)-1,2,3,4-tetrahydroisoquinoline-2-carbonyl)cyclohexane-1-carboxylic acid] | 63 | – |
| 5 | COCc1c(COc2ccc(Cl)c3c2[C@@H](CN2CC4(CC4)CC2=O)N(C(=O)[C@@H]2CCCC[C@]2(C)C(=O)O)CC3)nnn1C [Example 160, (1S,2R)-2-((S)-5-chloro-8-((5-(methoxymethyl)-1-methyl-1H-1,2,3-triazol-4-yl)methoxy)-1-((6-oxo-5-azaspiro [2.4]heptan-5-yl)methyl)-1,2,3,4-tetrahydroisoquinoline-2-carbonyl)-1-methylcyclohexane-1-carboxylic acid] | 0.72 | – |
| 4.7 | Cc1cnnc(N2CC[C@H](Oc3ccc(Br)c4c3[C@@H](CN3Cc5ccccc5C3=O)N(C(=O)[C@@H]3CCCC[C@@H]3C(=O)O)CC4)C2)c1 [Example 22, (1S,2R)-2-((S)-5-bromo-8-(((S)-1-(5-methylpyridazin-3-yl)pyrrolidin-3-yl)oxy)-1-((1-oxoisoindolin-2-yl)methyl)-1,2,3,4-tetrahydroisoquinoline-2-carbonyl)cyclohexane-1-carboxylic acid] | 15 | – |
